Patent US8629102B2, “3-hydroxyisothiazole 1-oxide derivatives” (Mochida Pharmaceutical Co., Ltd., priority 2011, dated 2014)
Blank lines part the entries; values can stand above or below the compound they belong to.

Biological target: T1, GPR40 of human origin (Homo sapiens, UniProt O14842)
T1 construct: expressed in transfected cells
Assay: Agonist action on GPR40 of human origin (intracellular Ca2+ change)
Format: cell-based
Details: CHO cell strain stably expressing GPR40 of human origin; change in Ca2+ concentration, fluorescent calcium indicator
Experimental: Pharmacological Test Example 1: Agonist Action on GPR40 of Human Origin
A CHO cell strain stably expressing GPR40 of human origin was used to determine the agonist action of a subject compound. This cell strain was seeded in a clear bottom 96 well plate at 4×10^4 cells/100 pt/well. The cell strain iswas cultured in a CO2 incubator overnight using a Ham's F-12 medium containing a 10% fetal bovine serum, 100 U/mL penicillin, 0.1 mg/mL streptomycin, and 400 μg/mL Geneticin. Calcium 4 Assay Kit (Molecular Devices) was used as a fluorescent calcium indicator. One mL of 77 mg/mL probenecid (Invitrogen) was added to 100 mL of a calcium indicator solution to prepare a solution (loading solution) mixed with a 20 mM HEPES-containing Hanks' balanced salt solution (HBSS) in equal proportions. To the cells from which the culture solution is removed, 200 μl of the loading solution was added, and the cells were cultured in a CO2 incubator for 1 hour. The subject compound was diluted with a 20 mM HEPES-containing HBSS and was added to the cells by 50 μL, and the change in the Ca^2+ concentration was measured with an intracellular ion analyzer. The EC50 value of the subject compound was calculated using the dose-response curve of fluorescence intensity variation.

T1 sequence (O14842 whole entry): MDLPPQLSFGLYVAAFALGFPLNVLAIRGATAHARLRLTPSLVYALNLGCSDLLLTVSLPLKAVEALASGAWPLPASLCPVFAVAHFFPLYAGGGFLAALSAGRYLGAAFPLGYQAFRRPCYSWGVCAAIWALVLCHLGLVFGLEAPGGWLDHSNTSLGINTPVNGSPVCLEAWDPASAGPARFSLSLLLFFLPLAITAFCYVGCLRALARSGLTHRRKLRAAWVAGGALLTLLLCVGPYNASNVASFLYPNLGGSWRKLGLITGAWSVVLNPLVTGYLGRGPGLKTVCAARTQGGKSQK

EC50: < 0.3 µM
SMILES: Cc1ccc(-c2cccc3c2CC[C@H]3Oc2ccc(-c3cc(O)n[s+]3[O-])cc2)cc1 (stereo partly drawn) [Example 5, 3-hydroxy-5-(4-(((1R)-4-(p-tolyl)-2,3-dihydro-1H-inden-1-yl)oxy)phenyl)isothiazole 1-oxide]

EC50: < 0.3 µM
SMILES: Cc1cccc(Oc2cccc3c2CC[C@H]3Oc2ccc(-c3cc(O)n[s+]3[O-])cc2)n1 (stereo partly drawn) [Example 130, 3-hydroxy-5-(4-(((R)-4-((6-methylpyridin-2-yl)oxy)-2,3-dihydro-1H-inden-1-yl)oxy)phenyl)isothiazole 1-oxide]

EC50: < 0.3 µM
SMILES: COc1cncc(Oc2cccc3c2CC[C@H]3Oc2ccc(-c3cc(O)n[s+]3[O-])cc2)c1 (stereo partly drawn) [Example 127, 3-hydroxy-5-(4-(((R)-4-((3-methoxypyridin-5-yl)oxy)-2,3-dihydro-1H-inden-1-yl)oxy)phenyl)isothiazole 1-oxide]

EC50: < 0.3 µM
SMILES: COc1ccc(C)cc1-c1cccc2c1CC[C@H]2Oc1ccc(-c2cc(O)n[s+]2[O-])cc1 (stereo partly drawn) [Example 45, 5-(4-(((R)-4-(2-methoxy-5-methylphenyl)-2,3-dihydro-1H-inden-1-yl)oxy)phenyl)-3-hydroxyisothiazole 1-oxide]

EC50: < 0.3 µM
SMILES: Cc1cccc(-c2cccc3c2CC[C@H]3Oc2ccc(-c3cc(O)n[s+]3[O-])cc2)c1 (stereo partly drawn) [Example 24, 5-(4-(((R)-4-(3-methylphenyl)-2,3-dihydro-1H-inden-1-yl)oxy)phenyl)-3-hydroxyisothiazole 1-oxide]

EC50: < 0.3 µM
SMILES: CCOc1ccc(Cl)cc1-c1cccc2c1CC[C@H]2Oc1ccc(-c2cc(O)n[s+]2[O-])cc1 (stereo partly drawn) [Example 58, 5-(4-(((R)-4-(5-chloro-2-ethoxyphenyl)-2,3-dihydro-1H-inden-1-yl)oxy)phenyl)-3-hydroxyisothiazole 1-oxide]

EC50: < 0.3 µM
SMILES: N#Cc1ccc(Oc2cccc3c2CC[C@H]3Oc2ccc(-c3cc(O)n[s+]3[O-])cc2)cc1 (single isomer, unassigned) [Example 83]

EC50: < 0.3 µM
SMILES: COc1ccc(Oc2cccc3c2OCC3Oc2ccc(-c3cc(O)n[s+]3[O-])cc2)cn1 (centres unmarked) [Example 140, 3-hydroxy-5-(4-((7-((6-methoxypyridin-3-yl)oxy)-2,3-dihydrobenzofuran-3-yl)oxy)phenyl)isothiazole 1-oxide]

EC50: < 0.3 µM
SMILES: Cc1ccc(-c2cccc3c2CC[C@H]3Oc2ccc(-c3cc(O)n[s+]3[O-])cc2)c(C)c1 (stereo partly drawn) [Example 36, 5-(4-(((R)-4-(2,4-dimethylphenyl)-2,3-dihydro-1H-inden-1-yl)oxy)phenyl)-3-hydroxyisothiazole 1-oxide]

EC50: < 0.3 µM
SMILES: COc1ccc(Oc2cccc3c2CC[C@H]3Oc2ccc(-c3cc(O)n[s+]3[O-])cc2)c(C)n1 (stereo partly drawn) [Example 106, 3-hydroxy-5-(4-(((R)-4-((6-methoxy-2-methylpyridin-3-yl)oxy)-2,3-dihydro-1H-inden-1-yl)oxy)phenyl)isothiazole 1-oxide]

EC50: < 0.3 µM
SMILES: NC(=O)c1cccc(Oc2cccc3c2CC[C@H]3Oc2ccc(-c3cc(O)n[s+]3[O-])cc2)c1 (stereo partly drawn) [Example 128, 3-(((1R)-1-(4-(3-hydroxy-1-oxidoisothiazol-5-yl)phenoxy)-2,3-dihydro-1H-inden-4-yl)oxy)benzamide]

EC50: < 0.3 µM
SMILES: COc1cc(Oc2cccc3c2CC[C@H]3Oc2ccc(-c3cc(O)n[s+]3[O-])cc2)ccn1 (stereo partly drawn) [Example 114, 3-hydroxy-5-(4-(((R)-4-((2-methoxypyridin-4-yl)oxy)-2,3-dihydro-1H-inden-1-yl)oxy)phenyl)isothiazole 1-oxide]

EC50: < 0.3 µM
SMILES: [O-][s+]1nc(O)cc1-c1ccc(O[C@@H]2CCc3c(Oc4ccsc4)cccc32)cc1 (stereo partly drawn) [Example 111, 3-hydroxy-5-(4-(((R)-4-(thiophen-3-yloxy)-2,3-dihydro-1H-inden-1-yl)oxy)phenyl)isothiazole 1-oxide]

EC50: < 0.3 µM
SMILES: Cc1ccc(C)c(-c2cccc3c2CC[C@H]3Oc2ccc(-c3cc(O)n[s+]3[O-])cc2)c1 (stereo partly drawn) [Example 37, 5-(4-(((R)-4-(2,5-dimethylphenyl)-2,3-dihydro-1H-inden-1-yl)oxy)phenyl)-3-hydroxyisothiazole 1-oxide]

EC50: < 0.3 µM
SMILES: [O-][s+]1nc(O)cc1-c1ccc(O[C@@H]2CCc3c(Oc4ccccc4)cccc32)cc1 (stereo partly drawn) [Example 90, 3-hydroxy-5-(4-(((R)-4-phenoxy-2,3-dihydro-1H-inden-1-yl)oxy)phenyl)isothiazole 1-oxide]

EC50: < 0.3 µM
SMILES: COc1ccc(F)cc1-c1cccc2c1CC[C@H]2Oc1ccc(-c2cc(O)n[s+]2[O-])cc1 (stereo partly drawn) [Example 56, 5-(4-(((R)-4-(5-fluoro-2-methoxyphenyl)-2,3-dihydro-1H-inden-1-yl)oxy)phenyl)-3-hydroxyisothiazole 1-oxide]

EC50: < 0.3 µM
SMILES: [O-][s+]1nc(O)cc1-c1ccc(O[C@@H]2CCc3c(Oc4cccc(OC(F)(F)F)c4)cccc32)cc1 (stereo partly drawn) [Example 99, 3-hydroxy-5-(4-(((R)-4-(3-(trifluoromethoxy)phenoxy)-2,3-dihydro-1H-inden-1-yl)oxy)phenyl)isothiazole 1-oxide]

EC50: < 0.3 µM
SMILES: COc1cc(C)c(Oc2cccc3c2CC[C@H]3Oc2ccc(-c3cc(O)n[s+]3[O-])cc2)cn1 (stereo partly drawn) [Example 105, 3-hydroxy-5-(4-(((R)-4-((6-methoxy-4-methylpyridin-3-yl)oxy)-2,3-dihydro-1H-inden-1-yl)oxy)phenyl)isothiazole 1-oxide]

EC50: < 0.3 µM
SMILES: COc1ccc(Oc2cccc3c2OCC3Oc2ccc(-c3cc(O)n[s+]3[O-])cc2)cn1 (single isomer, unassigned) [Example 152-a, 3-hydroxy-5-(4-((7-((6-methoxypyridin-3-yl)oxy)-2,3-dihydrobenzofuran-3-yl)oxy)phenyl)isothiazole 1-oxide]

Continued, compound first:

SMILES: [O-][s+]1nc(O)cc1-c1ccc(O[C@@H]2CCc3c(-c4cccc(C(F)(F)F)c4)cccc32)cc1 (stereo partly drawn) [Example 63, 5-(4-(((R)-4-(3-trifluoromethylphenyl)-2,3-dihydro-1H-inden-1-yl)oxy)phenyl)-3-hydroxyisothiazole 1-oxide]
EC50: 0.3 to 3 µM

SMILES: Cc1cc(OCCC(C)(C)O)cc(C)c1-c1cccc2c1OCC2Oc1ccc(-c2cc(O)n[s+]2[O-])cc1 (single isomer, unassigned) [Example 148-b, 3-hydroxy-5-(4-((7-(4-(3-hydroxy-3-methylbutoxy)-2,6-dimethylphenyl)-2,3-dihydrobenzofuran-3-yl)oxy)phenyl)isothiazole 1-oxide]
EC50: 0.3 to 3 µM

SMILES: CC(C)Cc1ccc(-c2cccc3c2CC[C@H]3Oc2ccc(-c3cc(O)n[s+]3[O-])cc2)cc1 (stereo partly drawn) [Example 28, 5-(4-(((R)-4-(4-isobutylphenyl)-2,3-dihydro-1H-inden-1-yl)oxy)phenyl)-3-hydroxyisothiazole 1-oxide]
EC50: < 0.3 µM

SMILES: N#Cc1ccc(Oc2cccc(COc3ccc(-c4cc(O)n[s+]4[O-])cc3)c2)cc1 (centres unmarked) [Example 125, 4-(3-((4-(3-hydroxy-1-oxidoisothiazol-5-yl)phenoxy)methyl)phenoxy)benzonitrile]
EC50: < 0.3 µM

SMILES: [O-][s+]1nc(O)cc1-c1ccc(OC2COc3c(Oc4ccccc4)cccc32)cc1 (single isomer, unassigned) [Example 145-b, 3-hydroxy-5-(4-((7-phenoxy-2,3-dihydrobenzofuran-3-yl)oxy)phenyl)isothiazole 1-oxide]
EC50: 0.3 to 3 µM

SMILES: [O-][s+]1nc(O)cc1-c1ccc(O[C@@H]2CCc3c(-c4ccc(Cl)cc4)cccc32)cc1 (stereo partly drawn) [Example 6, 5-(4-(((R)-4-(4-chlorophenyl)-2,3-dihydro-1H-inden-1-yl)oxy)phenyl)-3-hydroxyisothiazole 1-oxide]
EC50: 0.3 to 3 µM

SMILES: [O-][s+]1nc(O)cc1-c1ccc(OCc2ccc(Oc3ccccc3)cc2)cc1 (centres unmarked) [Example 159, 3-hydroxy-5-(4-((4-phenoxybenzyl)oxy)phenyl)isothiazole 1-oxide]
EC50: < 0.3 µM

SMILES: [O-][s+]1nc(O)cc1-c1ccc(O[C@@H]2CCc3c(-c4cncc(Cl)c4)cccc32)cc1 (stereo partly drawn) [Example 73, 5-(4-(((R)-4-(5-chloropyridin-3-yl)-2,3-dihydro-1H-inden-1-yl)oxy)phenyl)-3-hydroxyisothiazole 1-oxide]
EC50: < 0.3 µM

SMILES: [O-][s+]1nc(O)cc1-c1ccc(O[C@@H]2CCc3c(Br)cccc32)cc1 (single isomer, unassigned) [Example 3]
EC50: < 0.3 µM

SMILES: Cc1nc(OCCC(C)(C)O)ccc1Oc1cccc2c1OCC2Oc1ccc(-c2cc(O)n[s+]2[O-])cc1 (centres unmarked) [Example 141, 3-hydroxy-5-(4-((7-((6-(3-hydroxy-3-methylbutoxy)-2-methylpyridin-3-yl)oxy)-2,3-dihydrobenzofuran-3-yl)oxy)phenyl)isothiazole 1-oxide]
EC50: < 0.3 µM

SMILES: Cc1cc(OCCC(C)(C)O)cc(C)c1-c1cccc2c1OCC2Oc1ccc(-c2cc(O)n[s+]2[O-])cc1 (single isomer, unassigned) [Example 148-a, 3-hydroxy-5-(4-((7-(4-(3-hydroxy-3-methylbutoxy)-2,6-dimethylphenyl)-2,3-dihydrobenzofuran-3-yl)oxy)phenyl)isothiazole 1-oxide]
EC50: < 0.3 µM

SMILES: [O-][s+]1nc(O)cc1-c1ccc(OCC2=CC3(CCCC3)CCC2)cc1 (centres unmarked) [Example 122, 3-hydroxy-5-(4-(spiro[4.5]dec-6-en-7-ylmethoxy)phenyl)isothiazole 1-oxide]
EC50: < 0.3 µM

SMILES: CS(=O)(=O)c1ccccc1-c1cccc2c1CC[C@H]2Oc1ccc(-c2cc(O)n[s+]2[O-])cc1 (stereo partly drawn) [Example 70, 5-(4-(((R)-4-(2-(methylsulfonyl)phenyl)-2,3-dihydro-1H-inden-1-yl)oxy)phenyl)-3-hydroxyisothiazole 1-oxide]
EC50: < 0.3 µM
